We go through 45 compounds from US10499641B2 (priority 2010, dated 2019).

One test has as its system Phytophthora infestans. It counts as in vivo. The note with it: young tomato plants, sprayed, active ingredient concentration 100 ppm, inoculated 1 day after treatment, evaluation 7 days after inoculation; 100% = no infection.
In another test the test system is Plasmopara viticola. Nature of the test: Plasmopara test (grapevine)/protective. The test is classed as in vivo. The note with it: young grapevine plants, sprayed, active ingredient concentration 10 ppm, evaluation 6 days after inoculation; 100% = no infection. The procedure: Plasmopara Test (Grapevine)/Protective
• Solvent: 24.5 parts by weight of acetone • 24.5 parts by weight of dimethylacetamide • Emulsifier: 1 part by weight of alkylaryl polyglycol ether
[To produce an appropriate active ingredient formulation, 1 part by weight of active ingredient is mixed with the specified amounts of solvent and emulsifier, and the concentrate is diluted with water to the desired concentration.
To test for protective efficacy, young plants are sprayed with the active ingredient formulation at the stated application rate. After the spray coating has dried on, the plants are inoculated with an aqueous spore suspension of Plasmopara viticola and then remain in an incubation cabin at approx. 20° C. and 100% relative air humidity for 1 day. Subsequently, the plants are placed in a greenhouse at approx. 21° C. and approx. 90% air humidity for 4 days. The plants are then moistened and placed in an incubation cabin for 1 day.
Evaluation follows 6 days after the inoculation. 0% means an efficacy which corresponds to that of the control, whereas an efficacy of 100% means that no infection is observed.
In this test, the following inventive compounds show, at an active ingredient concentration of 10 ppm, an efficacy of 70% or more: […]

As to `CSCOc1ccccc1C1CC(c2csc(C3CCN(C(=O)Cn4nc(C(F)F)cc4C(F)F)CC3)n2)=NO1` (stereo not drawn) [Example I-112], the Eff. % in the test on Phytophthora infestans worked out at 94%; with Plasmopara viticola, 100%.
Taken in the same sequence, the figures for `C/C=C/C(=O)Oc1ccccc1C1CC(c2csc(C3CCN(C(=O)Cn4nc(C(F)F)cc4C(F)F)CC3)n2)=NO1` (stereo not drawn) [Example I-82] were 70% and 94%.
In the same order, the values of `CS(=O)(=O)Oc1cccc(Cl)c1C1CC(c2csc(C3CCN(C(=O)Cn4nc(C(F)F)cc4C(F)F)CC3)n2)=NO1` (stereo not drawn) [Example I-102] are 75% and 100%.
Take `O=C(Cn1nc(C(F)F)cc1C(F)F)N1CCC(c2nc(C3=NOC(c4ccccc4C=NO)C3)cs2)CC1` (mixture of isomers) [Example I-35]: the Eff. % was found to be 95% in the test on Phytophthora infestans and 100% with Plasmopara viticola.
For `N#CCOc1cccc(Cl)c1C1CC(c2csc(C3CCN(C(=O)Cn4nc(C(F)F)cc4C(F)F)CC3)n2)=NO1` (stereo not drawn) [Example I-75], in the test with Plasmopara viticola, the Eff. % was determined as 100%.
Take `Cc1cc(C(F)(F)F)nn1CC(=O)N1CCC(c2nc(C3=NOC(c4ccccc4OCC#N)C3)cs2)CC1` (stereo not drawn) [Example I-140]: the Eff. % worked out at 84% in the test on Phytophthora infestans and 100% in the test on Plasmopara viticola.
Taken in the same sequence, the figures for `CON=C(C)c1cccc(C2CC(c3csc(C4CCN(C(=O)Nc5cc(Cl)ccc5C)CC4)n3)=NO2)c1` (mixture of isomers) [Example I-23] were 100% and 98%.
Taken in the same sequence, the figures for `Cc1cc(C(F)(F)F)nn1CC(=O)N1CCC(c2nc(C3=NOC(c4c(Cl)cccc4OCC#N)C3)cs2)CC1` (stereo not drawn) [Example I-78] were 80% and 97%.
Take `CON=C(C)c1ccccc1C1CC(c2csc(C3CCN(C(=O)Cn4nc(C(F)(F)F)cc4C)CC3)n2)=NO1` (mixture of isomers) [Example I-31]: the figures for the Eff. % in the test with Phytophthora infestans and with Plasmopara viticola were 100% and 97%, respectively.
Taken in the same sequence, the figures for `C#CCOCc1ccccc1C1CC(c2csc(C3CCN(C(=O)Cn4nc(C(F)(F)F)cc4C)CC3)n2)=NO1` (stereo not drawn) [Example I-46] were 94% and 94%.
`CON=Cc1cccc(C2CC(c3csc(C4CCN(C(=O)Nc5cc(Cl)ccc5C)CC4)n3)=NO2)c1` (mixture of isomers) [Example I-19]: the Eff. % in the test with Phytophthora infestans and in the test with Plasmopara viticola was 100% each time.
As for `Cc1ccc(Cl)cc1NC(=O)N1CCC(c2nc(C3=NOC(c4cccc(C=NO)c4)C3)cs2)CC1` (mixture of isomers) [Example I-14], the Eff. % in the test on Phytophthora infestans and in the test on Plasmopara viticola was 100% in each case.
As for `CON=Cc1ccccc1C1CC(c2csc(C3CCN(C(=O)Cn4nc(C(F)(F)F)cc4C)CC3)n2)=NO1` (stereo not drawn) [Example I-34], the Eff. % is recorded as 100% in the test on Phytophthora infestans and 87% in the test with Plasmopara viticola.
Turning to `O=C(Oc1ccccc1C1CC(c2csc(C3CCN(C(=O)Cn4nc(C(F)F)cc4C(F)F)CC3)n2)=NO1)c1ccc(F)cc1` (stereo not drawn) [Example I-132], the Eff. % in the test with Phytophthora infestans is listed as 100%; with Plasmopara viticola, 96%.
Regarding `O=C(Oc1ccccc1C1CC(c2csc(C3CCN(C(=O)Cn4nc(C(F)F)cc4C(F)F)CC3)n2)=NO1)c1ccccc1` (stereo not drawn) [Example I-131], the Eff. % with Phytophthora infestans is 100%; in the test on Plasmopara viticola it was 94%.
`C=CC(=O)Oc1ccccc1C1CC(c2csc(C3CCN(C(=O)Cn4nc(C(F)F)cc4C(F)F)CC3)n2)=NO1` (stereo not drawn) [Example I-116]: the Eff. % in the test on Phytophthora infestans came to 98%; in the test with Plasmopara viticola, 100%.
Taken in the same sequence, the figures for `CC(=NO)c1cccc(C2CC(c3csc(C4CCN(C(=O)Cn5nc(C(F)F)cc5C(F)F)CC4)n3)=NO2)c1` (mixture of isomers) [Example I-18] were 100% and 100%.
In the test with Plasmopara viticola, `CON=Cc1cccc(C2CC(c3csc(C4CCN(C(=O)Cn5nc(C(F)F)cc5C(F)F)CC4)n3)=NO2)c1` (mixture of isomers) [Example I-16] came in with an Eff. % of 94%.
On to `COCCS(=O)(=O)Cc1ccccc1C1CC(c2csc(C3CCN(C(=O)Cn4nc(C(F)F)cc4C(F)F)CC3)n2)=NO1` (stereo not drawn) [Example I-57], for which the values for the Eff. % in the test with Phytophthora infestans and in the test on Plasmopara viticola were 94% and 90%, respectively.
In the same order, the values of `N#CCN(C=O)c1ccccc1C1CC(c2csc(C3CCN(C(=O)Cn4nc(C(F)F)cc4C(F)F)CC3)n2)=NO1` (stereo not drawn) [Example I-121] are 100% and 98%.
Taken in the same sequence, the figures for `O=C(Cn1nc(C(F)F)cc1C(F)F)N1CCC(c2nc(C3=NOC(c4cccc(OS(=O)(=O)C5CC5)c4)C3)cs2)CC1` (stereo not drawn) [Example I-83] were 98% and 94%.
Taken in the same sequence, the figures for `Cc1cc(C(F)(F)F)nn1CC(=O)N1CCC(c2nc(C3=NOC(c4cccc(F)c4OS(=O)(=O)C4CC4)C3)cs2)CC1` (stereo not drawn) [Example I-114] were 94% and 100%.
In the case of `CON=C(C)c1cccc(C2CC(c3csc(C4CCN(C(=O)Cn5nc(C(F)(F)F)cc5C)CC4)n3)=NO2)c1` (stereo not drawn) [Example I-3], the figures for the Eff. % with Phytophthora infestans and in the test with Plasmopara viticola were 100% and 97%, respectively.
In the test with Phytophthora infestans, `CCON=Cc1cccc(C2CC(c3csc(C4CCN(C(=O)Cn5nc(C(F)F)cc5C(F)F)CC4)n3)=NO2)c1` (mixture of isomers) [Example I-24] came in with an Eff. % of 100%.
Still for that read-out and setting: the result for `C=CCOCc1ccccc1C1CC(c2csc(C3CCN(C(=O)Cn4nc(C(F)F)cc4C(F)F)CC3)n2)=NO1` (stereo not drawn) [Example I-139] reads 80%; that for `O=C(Cn1nc(C(F)F)cc1C(F)F)N1CCC(c2nc(C3=NOC(c4cccc(OCC#Cc5cccc6ccccc56)c4)C3)cs2)CC1` (stereo not drawn) [Example I-137], 100%.
With `CS(=O)(=O)Oc1ccc(F)c(C2CC(c3csc(C4CCN(C(=O)Cn5nc(C(F)F)cc5C(F)F)CC4)n3)=NO2)c1F` (stereo not drawn) [Example I-50], in the test on Phytophthora infestans, the Eff. % stood at 94%.
On the same count and under the same terms, the result for `Cc1cc(C(F)(F)F)nn1CC(=O)N1CCC(c2nc(C3=NOC(c4cccc(OCC#N)c4)C3)cs2)CC1` (stereo not drawn) [Example I-95] reads 100%.
On to `C=CCOCc1ccccc1C1CC(c2csc(C3CCN(C(=O)Cn4nc(C(F)(F)F)cc4C)CC3)n2)=NO1` (stereo not drawn) [Example I-93], for which the Eff. % in the test with Phytophthora infestans was determined as 95%.
`Cc1ccc(S(=O)(=O)Oc2ccccc2C2(C)CC(c3csc(C4CCN(C(=O)Cn5nc(C(F)F)cc5C(F)F)CC4)n3)=NO2)cc1` (stereo not drawn) [Example I-48]: in the test with Phytophthora infestans, the Eff. % turned out to be 94%.
In the case of `CC(C)ON=Cc1cccc(C2CC(c3csc(C4CCN(C(=O)Cn5nc(C(F)F)cc5C(F)F)CC4)n3)=NO2)c1` (mixture of isomers) [Example I-6], the Eff. % in the test on Phytophthora infestans came out at 100%.
Still for that read-out and setting: then `Cc1cc(C(F)F)nn1CC(=O)N1CCC(c2nc(C3=NOC(C)(c4ccccc4OS(C)(=O)=O)C3)cs2)CC1` (stereo not drawn) [Example I-44], with 94%; and `C=CC(=O)Oc1ccccc1C1CC(c2csc(C3CCN(C(=O)Cn4nc(C(F)(F)F)cc4C)CC3)n2)=NO1` (stereo not drawn) [Example I-104], with 97%.
The same measure, in the same setting: then `CC(=NOC(C)C)c1cccc(C2CC(c3csc(C4CCN(C(=O)Cn5nc(C(F)F)cc5C(F)F)CC4)n3)=NO2)c1` (mixture of isomers) [Example I-20], with 100%; and `Cc1cc(C(F)(F)F)nn1CC(=O)N1CCC(c2nc(C3=NOC(c4ccccc4NC=O)C3)cs2)CC1` (stereo not drawn) [Example I-109], with 100%.
`COCCS(=O)(=O)Cc1ccccc1C1CC(c2csc(C3CCN(C(=O)Cn4nc(C(F)(F)F)cc4C)CC3)n2)=NO1` (stereo not drawn) [Example I-45] came in with an Eff. % in the test on Phytophthora infestans of 94%.
`CC(=O)Nc1ccc(C2CC(c3csc(C4CCN(C(=O)Cn5nc(C(F)F)cc5C(F)F)CC4)n3)=NO2)cc1` (stereo not drawn) [Example I-25] came in with an Eff. % in the test on Plasmopara viticola of 97%.
In the test on Phytophthora infestans, `Cc1cc(C(F)(F)F)nn1CC(=O)N1CCC(c2nc(C3=NOC(c4ccc(OS(=O)(=O)C5CC5)cc4)C3)cs2)CC1` (stereo not drawn) [Example I-98] yielded an Eff. % of 95%.
On the same count and under the same terms, the result for `CCNC(=O)Oc1ccccc1C1CC(c2csc(C3CCN(C(=O)Cn4nc(C(F)F)cc4C(F)F)CC3)n2)=NO1` (stereo not drawn) [Example I-136] reads 93%; that for `Cc1cc(C(F)(F)F)nn1CC(=O)N1CCC(c2nc(C3=NOC(c4cccc(C=NOC(C)C)c4)C3)cs2)CC1` (mixture of isomers) [Example I-8], 100%.
On the same count and under the same terms, then `Cc1ccc(C)c(NC(=O)N2CCC(c3nc(C4=NOC(c5c(Cl)cccc5OS(C)(=O)=O)C4)cs3)CC2)c1` (stereo not drawn) [Example I-52], with 94%; and `CCON=Cc1ccccc1C1CC(c2csc(C3CCN(C(=O)Nc4cc(Cl)ccc4C)CC3)n2)=NO1` (mixture of isomers) [Example I-33], with 100%.
The compound `CCON=Cc1cccc(C2CC(c3csc(C4CCN(C(=O)Nc5cc(Cl)ccc5C)CC4)n3)=NO2)c1` (mixture of isomers) [Example I-12] yielded an Eff. % with Phytophthora infestans of 95%.
Same read-out and setting: then `CC(=NOC(C)C)c1ccccc1C1CC(c2csc(C3CCN(C(=O)Cn4nc(C(F)(F)F)cc4C)CC3)n2)=NO1` (mixture of isomers) [Example I-30], with 100%; and `CC(=NOC(C)C)c1ccccc1C1CC(c2csc(C3CCN(C(=O)Cn4nc(C(F)F)cc4C(F)F)CC3)n2)=NO1` (mixture of isomers) [Example I-28], with 100%.
